Data from patent US20200009118A1, “COMPOSITIONS AND METHODS FOR THE TREATMENTOF NEURODEGENERATIVE AND OTHER DISEASES” (Glialogix, Inc., priority 2017, published 2020).

Legend:
[1] = for Cmax GB: pH 2; for AUC / Cmax IB: pH 5.5
[2] = test system: xCT mRNA in primary rat microglial cells; assay: qPCR of xCT mRNA in primary microglia; format: cell-based; settings: control gene gamma-actin
Method: (§1) Following 24 hours, cells were then mixed and aliquoted in to 96 wells at 7,000-20,000 cells per well in fresh media, either complete media (microglia) or minimal media (100 mL Neurobasal Media (#12348-017, Life Tech) supplemented with 1 mL N2 supplement (#17502-048, Life Tech) and 0.5 mM GlutaMax (#35050-061, Life Tech). Compounds to be tested were then added at the indicated concentrations and cells harvested 18 hours later by centrifugation at 2000×g, 5 minutes at 4° C. mRNA was isolated from the cells by use of the Purelink microscale RNA extraction kit (Catalog #12183016, Life Technologies) kit and the mRNA resuspended in 12-22 μl of RNase-free water according to the manufacturer's instructions. cDNA was prepared by use of the Superscript VILO kit (Catalog #11755050, Life Technologies) according to the manufacturer's instructions. The cDNA was eluted in a final volume of 20 μl RNase-free water and 4 μl was used for each qPCR reaction. For the real-time qPCR reactions, primers and reagents were supplied by Life Technologies and used according to the manufacturer's instructions. The detection molecule was the TaqMan probe with FAM dye label on 5′ end that binds to non-labeled primer pairs. The qPCR machine was a model 7500 Fast Real Time machine from ABI and used according to the manufacturer's instructions. 4 μl of the cDNA reaction was used for each qPCR reactions in a final volume of 20 μl. […] mRNA levels were quantitated by measuring the Cycle threshold (Ct) for each qPCR reaction using the standard algorithm supplied with the ABI 7500 Fast qPCR machine without modification. The Ct is defined as the number of cycles required for the fluorescent signal to cross the threshold (e.g. exceeds background level). […] The Cycle threshold is abbreviated Ct. The change in Ct equals [Ct (minus test agent)−Ct (plus test agent)]. Changes in Ct of the test genes xCT and IL1-beta are normalized by subtracting the change in Ct of the control gene, either gamma-actin or Hypoxanthine-guanine phosphoribosyl transferase (HPRT). […] Using the methods described in Example 11, various agents reported to cause activation of neuroinflammatory cells and/or known to cause or reflect damage to neurons, axons and/or oligodendrocytes were tested for their effect on xCT levels in primary rat microglia.

[3] = test system: IL1-beta mRNA in primary rat microglial cells; assay: qPCR of IL1-beta mRNA in primary microglia; format: cell-based; settings: control gene gamma-actin
Method: as §1

[4] = test system: xCT mRNA in primary rat astrocyte cells; assay: qPCR of xCT mRNA in primary astrocytes; format: cell-based; settings: astrocyte media, control gene gamma-actin
Method: (§2) Primary rat astrocyte cells were purchased from All Cells (Catalog #RCTX-001F, Alameda, Calif.), thawed and resuspended in 13.4 ml of DMEM media (Catalog #12-614F, Lonza, Allendale, N.J.) supplemented with 15% v/v FBS (Catalog #F4135, Sigma-Aldrich, St. Louis, Mo.) and 560 μL aliquoted into wells in a 24-well plate. Cells were incubated at 37° C. with 5% CO2. For each qPCR experiment, 2-3 wells (approximately 42,000-63,000 cells) were transferred to a new 24-well plate with fresh astrocyte media, composed of 50% v/v DMEM, 50% v/v Neurobasal media (Catalog #12348-017), Life Technologies, supplemented with 2 mM glutamine, 300 μM L-cystine. Following 24 hours, cells were then mixed and aliquoted into 24 well plates at approximately 10,000 cells per well in the same media. Compounds to be tested were then added at the indicated concentrations and cells harvested 18 hours later by washing once with PBS (Catalog #P5493, Sigma-Aldrich) and then treated with 300 μl of StemProAccutase cell dissociation reagent (Catalog #A11105-01, Life Technologies) and incubated for 5-10 minutes at 37° C. PBS (300 μl) was added and the cells spun down in a microfuge for 5 minutes at 2,000×g at 4° C. The supernatant was removed and mRNA was isolated from the cells by using the Purelink microscale RNA extraction kit (Catalog #12183016, Life Technologies) according to the manufacturer's instructions. The mRNA resuspended in 12-22 μl of RNase-free water. cDNA was prepared by use of the Superscript VILO kit (Catalog #11755050, Life Technologies) according to the manufacturer's instructions. The cDNA was eluted in a final volume of 20 μl RNase-free water in and 4 μl was used for each qPCR reaction. qPCR reactions and primers were as described in Example 11.
(§3) To determine if tunicamycin increased levels of xCT mRNA, Tunicamycin (5 ng/ml) was added to the primary astrocyte cell cultures in astrocyte media. xCT gene expression was determined by qPCR after 18 hours of exposure to tunicamycin.
(§4) The Cycle threshold is abbreviated Ct. The change in Ct equals [Ct (minus test agent)−Ct (plus test agent)]. Changes in Ct of the test genes xCT and Lcn-2 are normalized by subtracting the change in Ct of the control gene, either gamma-actin or Hypoxanthine-guanine phosphoribosyl transferase (HPRT). Ct values are converted to absolute values by the formula: absolute value=2^^(normalized change in Ct). Absolute values are converted to percent change by multiplying the absolute value by 100.
(§5) Using the methods described in Example 11, various agents known to cause activation of neuroinflammatory cells and/or cause or reflect stress and damage to neurons, axons and/or oligodendrocytes were tested for causing an increase in xCT levels in primary rat astrocytes.

[5] = test system: Lcn-2 mRNA in primary rat astrocyte cells; assay: qPCR of Lcn-2 mRNA in primary astrocytes; format: cell-based; settings: astrocyte media, control gene gamma-actin
Method: as §2, §3, §4, §5

[6] = target: T1, xCT (Rattus norvegicus, UniProt A0A8I6AB70); assay: Extracellular glutamate from primary astrocytes (Amplex Red Glutamic Acid/Glutamate Oxidase Assay); format: cell-based; settings: TNF-alpha 100 μg/ml 18 hours in astrocyte media, no sulfasalazine
T1 construct: host or cells: primary rat astrocytes
Source text: xCT is a cystine-glutamate exchange protein that imports extracellular cystine in exchange for exporting intracellular glutamate. xCT activity can be measured by measuring the level of the extracellular glutamate that is exported. For detection of extracellular glutamate, the Amplex Red Glutamic Acid/Glutamate Oxidase Assay Kit from Life Technologies (Catalog #A-1222, Grand Island, N.Y.) was used following the manufacturer's instructions. Fluorescence from the Amplex Red fluorophore is directly proportional to glutamate concentration and was detected on an Enspire plate reader (Perkin-Elmer (Model #2300, Santa Clara, Calif.) with excitation wavelength at 530 nm and detection wavelength at 590 nm according to the manufacturer's instructions.
Astrocytes were grown in 24-well microtiter plates at a density of approximately 10,000 cells/well in a total volume of 400 μl of astrocyte media. Cells were incubated 18 hours in either astrocyte media plus 100 μM cystine (Catalog #C8755; Sigma-Aldrich) or astrocyte media plus 100 μM cystine plus TNF-alpha (100 μg/ml). After 18 hours, the media was removed and the adherent astrocytes washed twice with PBS and then 400 μL of minimal media was added to the cells. The minimal media was EBSS (catalog #E3024, Sigma-Aldrich) supplemented with 100 μM cystine and 10 mM D-glucose (catalog #G8769, Sigma-Aldrich).
The top 25 μL of the supernatant was then transferred to a 0.5 ml microfuge tube and the aliquots frozen at −80.
For the glutamate assay, samples of the media were thawed, pipetted up and down to ensure mixing and 20 μl added to 80 μl of the Amplex Red assay mix in a 96-well microtiter plate (catalog #M4436, Greiner, Frickenhausen, Germany). The reactions were covered in aluminum foil and allowed to proceed for 30 minutes at 37° C. and then fluorescence measured as described above.
Concurrently with analysis of the astrocyte samples, a standard curve of the Amplex Red glutamate assay in the minimal media was prepared following the manufacturer's instructions and using known concentrations of glutamate: 0, 0.5, 1, 2 and 4 μM. Table 19 gives the numerical results of the standard curve assay and the results are depicted graphically in FIG. 17.

[7] = test system: SOD1^G93A transgenic mice; settings: cited from earlier work
[8] = cited from earlier work
[9] = 100 ng/ml, complete media, 18 hours
[10] = 100 ng/ml, minimal media, 18 hours
[11] = published results in the SOD1 mouse model

T1 sequence (A0A8I6AB70 1-502): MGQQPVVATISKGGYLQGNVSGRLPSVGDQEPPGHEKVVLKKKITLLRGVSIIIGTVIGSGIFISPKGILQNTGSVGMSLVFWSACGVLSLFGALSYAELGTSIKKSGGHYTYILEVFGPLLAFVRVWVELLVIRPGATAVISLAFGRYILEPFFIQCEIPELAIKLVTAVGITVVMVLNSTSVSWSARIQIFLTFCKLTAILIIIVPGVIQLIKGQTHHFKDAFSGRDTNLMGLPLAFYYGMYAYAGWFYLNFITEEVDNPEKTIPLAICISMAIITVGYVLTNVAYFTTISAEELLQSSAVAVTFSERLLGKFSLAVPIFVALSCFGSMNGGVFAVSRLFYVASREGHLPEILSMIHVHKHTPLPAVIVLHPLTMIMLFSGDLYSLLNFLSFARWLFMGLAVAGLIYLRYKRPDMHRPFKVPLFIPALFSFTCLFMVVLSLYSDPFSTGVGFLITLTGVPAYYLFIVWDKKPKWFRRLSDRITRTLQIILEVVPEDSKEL
T1 sequence (Q794F9 whole entry partner): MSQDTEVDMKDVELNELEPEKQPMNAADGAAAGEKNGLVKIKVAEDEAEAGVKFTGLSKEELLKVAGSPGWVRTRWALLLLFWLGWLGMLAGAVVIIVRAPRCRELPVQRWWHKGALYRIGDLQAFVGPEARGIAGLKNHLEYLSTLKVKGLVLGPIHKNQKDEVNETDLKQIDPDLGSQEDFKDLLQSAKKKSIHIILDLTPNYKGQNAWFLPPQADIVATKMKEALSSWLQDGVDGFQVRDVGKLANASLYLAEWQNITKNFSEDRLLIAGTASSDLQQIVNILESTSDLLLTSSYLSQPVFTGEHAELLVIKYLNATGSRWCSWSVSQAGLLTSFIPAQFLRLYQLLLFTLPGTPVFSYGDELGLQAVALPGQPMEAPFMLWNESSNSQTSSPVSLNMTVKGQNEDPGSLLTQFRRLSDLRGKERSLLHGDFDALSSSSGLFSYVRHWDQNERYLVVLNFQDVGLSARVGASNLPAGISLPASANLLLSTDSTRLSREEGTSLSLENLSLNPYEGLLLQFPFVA

## O=C(O)c1cc(/N=N/c2ccc(S(=O)(=O)Nc3ccccn3)cc2)ccc1O [Crystalline sulfasalazine, sulfasalazine]
[1]
  Cmax GB: 15 µg/mL
  AUC: 22,200 min * ug/mL
  Cmax IB: 282 µg/mL

## Poly I/C
[2]; [9]
  xCT, Change in Ct normalized to control gene: 6.186
  xCT, Fold (absolute) change normalized: 72.8
  xCT, Percent change normalized: 7,281%
[2]; [10]
  xCT, Change in Ct normalized to control gene: 3.619
  xCT, Fold (absolute) change normalized: 12.3
  xCT, Percent change normalized: 1229%
[3]; [9]
  IL1-beta, Percent change normalized: 1,900%
[3]; [10]
  IL1-beta, Percent change normalized: 1,099%
[4]; 10 ug/ml
  xCT, Change in Ct normalized to control gene: 1.471
  xCT, Fold change normalized: 2.77
  xCT, Percent change normalized: 277%
[5]; 10 ug/ml
  Lcn-2, Percent change normalized: 76%

## IL-17A: inflammatory cytokine
[2]; 10 ng/ml, complete media
  xCT, Change in Ct normalized to control gene: 1.652
  xCT, Fold change normalized: 3.1
  xCT, Percent change normalized: 314%
[4]; 100 ng/ml
  xCT, Change in Ct normalized to control gene: 0.351
  xCT, Fold change normalized: 1.28
  xCT, Percent change normalized: 128%
[5]; 100 ng/ml
  Lcn-2, Percent change normalized: 123%

## TNF-alpha
[2]; [9]
  xCT, Change in Ct normalized to control gene: 3.214
  xCT, Fold (absolute) change normalized: 9.3
  xCT, Percent change normalized: 930%
[3]; [9]
  IL1-beta, Percent change normalized: 3,000%
[4]; 100 ng/ml
  xCT, Change in Ct normalized to control gene: 1.376
  xCT, Fold change normalized: 2.60
  xCT, Percent change normalized: 260%
[5]; 100 ng/ml
  Lcn-2, Percent change normalized: 244%
[6]; 30 minutes in minimal media
  Calculated glutamate levels: 2.88 µM
  Fluorescence units: 13398
[6]; 120 minutes in minimal media
  Calculated glutamate levels: 9.05 µM
  Fluorescence units: 34307
[6]; 240 minutes in minimal media
  Calculated glutamate levels: 13.82 µM
  Fluorescence units: 50468

## Nc1nc2ccc(OC(F)(F)F)cc2s1 [riluzole]
[7]; [11]
  increased lifespan after onset of neurological disease: 1%
[7]; same SOD1 model under similar conditions, Lincecum et al.
  increased absolute lifespan: 1.6%

## CC(C)Cc1ccc(C(C)C(=O)O)cc1 (stereo not shown) [ibuprofen]
[7]; [11]
  decreased lifespan after onset of neurological disease: 10%

## O=C(O)c1cc(/N=N/c2ccc(S(=O)(=O)Nc3ccccn3)cc2)ccc1O [Amorphous sulfasalazine, sulfasalazine]
[1]
  Cmax GB: 154 µg/mL
  AUC: 30,300 min * ug/mL
  Cmax IB: 372 µg/mL

## Nc1ccc(S(=O)(=O)Nc2ccccn2)cc1 [Sulfapyridine, sulfapyridine]
[8]
  oral bioavailability (reaching the circulation following oral dosing): > 70%

## IFN-gamma: inflammatory cytokine
[2]; 30 ng/ml, complete media
  xCT, Change in Ct normalized to control gene: 1.417
  xCT, Fold change normalized: 2.7
  xCT, Percent change normalized: 270%
[2]; [9]
  xCT, Change in Ct normalized to control gene: 1.636
  xCT, Fold (absolute) change normalized: 3.1
  xCT, Percent change normalized: 311%
[3]; 30 ng/ml, complete media
  IL1-beta, Percent change normalized: 2,043%
[3]; [9]
  IL1-beta, Percent change normalized: 446%

B1: IL-4: anti-inflammatory cytokine, tested as a control (protein, UniProt P05112 25-153, looked up)
Interleukin-4: HKCDITLQEIIKTLNSLTEQKTLCTELTVTDIFAASKNTTEKETFCRAATVLRQFYSHHEKDTRCLGATAQQFHRHKQLIRFLKRLDRNLWGLAGLNSCPVKEANQSTLENFLERLKTIMREKYSKCSS
[2]; [9]
  xCT, Change in Ct normalized to control gene: −0.147
  xCT, Fold (absolute) change normalized: 0.9
  xCT, Percent change normalized: 90%
[4]; 100 ng/ml
  xCT, Change in Ct normalized to control gene: −0.097
  xCT, Fold change normalized: 0.93
  xCT, Percent change normalized: 93%
[5]; 100 ng/ml
  Lcn-2, Percent change normalized: 103%
